ChEMBL document CHEMBL3259572, “Euodenine A: a small-molecule agonist of human TLR4” (J Med Chem, 2014)
The source made the active and inactive calls. The calls are words filed in the database; no cut-off is given here.

Legend:
Type in all cases: cell-based
Toll-like receptor 4 [1] = target: T1, Toll-like receptor 4 (Homo sapiens, UniProt O00206); assay: Agonist activity at human recombinant TLR4 expressed in HEK293 cells by SEAP reporter assay
Toll-like receptor 4 [2] = target: T1, Toll-like receptor 4; assay: Intrinsic activity at human recombinant TLR4 expressed in HEK293 cells by SEAP reporter assay relative to LPS
[3] = Cytotoxicity against PHA-stimulated human PBMC assessed as reduction in cell viability at 50 uM by WST-1 cell proliferation assay
PBMC = assay: Cytotoxicity against PHA-stimulated human PBMC assessed as reduction in cell viability at 20 uM by WST-1 cell proliferation assay
Toll-like receptor 4 [4] = target: T1, Toll-like receptor 4; assay: Agonist activity at human recombinant TLR4 expressed in HEK293 cells at 71.5 uM by SEAP reporter assay
Toll-like receptor 4 [5] = target: T1, Toll-like receptor 4; assay: Agonist activity at human recombinant TLR4 expressed in HEK293 cells at 300 uM by SEAP reporter assay
Toll-like receptor 4 [6] = target: T1, Toll-like receptor 4; assay: Agonist activity at human recombinant TLR4 expressed in HEK293 cells at 30 uM by SEAP reporter assay
Toll-like receptor 4 [7] = target: T1, Toll-like receptor 4; assay: Agonist activity at human recombinant TLR4 expressed in HEK293 cells at 60 uM by SEAP reporter assay
Toll-like receptor 4 [8] = target: T1, Toll-like receptor 4; assay: Agonist activity at human recombinant TLR4 expressed in HEK293 cells at 333 uM by SEAP reporter assay
Toll-like receptor 4 [9] = target: T1, Toll-like receptor 4; assay: Agonist activity at human recombinant TLR4 expressed in HEK293 cells at 25 uM by SEAP reporter assay

T1 sequence (O00206 whole entry): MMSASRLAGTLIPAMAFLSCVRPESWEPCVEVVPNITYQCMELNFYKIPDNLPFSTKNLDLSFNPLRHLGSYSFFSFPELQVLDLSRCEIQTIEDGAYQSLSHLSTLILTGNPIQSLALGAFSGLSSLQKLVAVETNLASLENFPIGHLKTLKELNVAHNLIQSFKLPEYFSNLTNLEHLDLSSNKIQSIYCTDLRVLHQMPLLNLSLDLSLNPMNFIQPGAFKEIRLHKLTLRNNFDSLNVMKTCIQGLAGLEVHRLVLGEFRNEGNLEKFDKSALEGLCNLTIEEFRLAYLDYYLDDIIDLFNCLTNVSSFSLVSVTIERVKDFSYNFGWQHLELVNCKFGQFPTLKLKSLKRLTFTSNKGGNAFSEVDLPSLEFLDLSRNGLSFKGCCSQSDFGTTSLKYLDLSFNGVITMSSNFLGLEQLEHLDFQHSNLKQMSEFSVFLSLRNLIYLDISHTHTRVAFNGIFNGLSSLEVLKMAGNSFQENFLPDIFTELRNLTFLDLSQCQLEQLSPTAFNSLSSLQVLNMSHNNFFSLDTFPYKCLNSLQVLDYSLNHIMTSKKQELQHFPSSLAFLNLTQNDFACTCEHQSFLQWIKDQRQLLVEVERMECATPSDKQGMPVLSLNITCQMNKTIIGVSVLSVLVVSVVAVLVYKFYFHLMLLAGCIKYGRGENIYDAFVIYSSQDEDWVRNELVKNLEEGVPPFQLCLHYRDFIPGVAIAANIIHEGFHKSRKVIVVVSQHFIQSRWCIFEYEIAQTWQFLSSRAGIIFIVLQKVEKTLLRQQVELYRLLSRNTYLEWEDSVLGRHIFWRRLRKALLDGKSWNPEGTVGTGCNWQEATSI

Row | SMILES | EC50 (Toll-like receptor 4 [1]) | Intrinsic activity (Toll-like receptor 4 [2]) | other results
1 | COc1ccc2[nH]c(=O)c3c(c2c1)OC(C)(C)[C@@H]1[C@H]3[C@H](c2ccc(OC)c(OC)c2)[C@H]1C(C)C | > 10 µM |  | 
2 | COC[C@@H]1[C@@H](c2ccc(OC)c(OC)c2)[C@H]2c3c(c4ccccc4n(C)c3=O)OC(C)(C)[C@@H]12 |  |  | inhibition at 50 µM [3]: 30%; Activity (PBMC): Non-toxic
3 | C[C@@H]1[C@@H](c2ccccc2)[C@H]2c3c(c4ccccc4[nH]c3=O)OC(C)(C)[C@@H]12 |  |  | Activity (Toll-like receptor 4 [4]): inactive
4 | COc1cc([C@@H]2[C@@H](C)[C@H]3[C@@H]2c2c(c4ccccc4[nH]c2=O)OC3(C)C)ccc1O | > 10 µM |  | 
5 | CCC[C@]1(c2ccc(OC)c(OC)c2)O[C@H]2c3c(c4ccccc4[nH]c3=O)OC(C)(C)[C@H]2O1 | 15.8 µM | 0.2 | 
6 | COc1ccc([C@H]2[C@H]3c4c(c5ccccc5[nH]c4=O)OC(C)(C)[C@H]3[C@@H]2C2CC2)cc1OCCCN1CCOCC1 | 3.9 µM | 0.19 | 
7 | CCOc1ccc([C@H]2[C@H]3c4c(c5ccccc5[nH]c4=O)OC(C)(C)[C@H]3[C@@H]2C(C)C)cc1OC | 3.9 µM | 0.19 | 
8 | COc1ccc([C@@H]2[C@@H](C)[C@H]3[C@@H]2c2c(c4ccccc4[nH]c2=O)OC3(C)C)cc1 | > 10 µM |  | 
9 | COc1cc([C@@H]2[C@@H](C)[C@H]3[C@@H]2c2c(c4ccccc4[nH]c2=O)OC3(C)C)ccc1OCc1ccccc1 |  |  | Activity (Toll-like receptor 4 [5]): inactive
10 | COc1ccc([C@@H]2[C@@H](C(C)=O)[C@H]3[C@@H]2c2c(c4ccccc4[nH]c2=O)OC3(C)C)cc1OC | 10 µM | 0.3 | 
11 | COc1ccc([C@@H]2[C@@H](C)[C@H]3[C@@H]2c2c(c4ccccc4[nH]c2=O)OC3(C)C)cc1Br | 3.9 µM | 0.28 | 
12 | COc1cc([C@H]2[C@H]3c4c(c5cc(C)ccc5n(C)c4=O)OC(C)(C)[C@H]3[C@@H]2C(C)C)cc(OC)c1OC | 7.9 µM | 0.41 | 
13 | COc1ccc2[nH]c(=O)c3c(c2c1)OC(C)(C)[C@H]1[C@H](C)[C@@H](c2cc(OC)c(OC)c(OC)c2)[C@@H]31 | > 10 µM |  | 
14 | COc1ccc([C@H]2[C@H]3c4c(c5ccccc5[nH]c4=O)OC(C)(C)[C@H]3[C@@H]2C(C)C)cc1OC(=O)CCC(=O)O | 6.3 µM | 0.29 | 
15 | COc1ccc([C@@H]2[C@@H](C(=O)C3CC3)[C@H]3[C@@H]2c2c(c4ccccc4[nH]c2=O)OC3(C)C)cc1OC | 7.9 µM | 0.62 | 
16 | COc1cc([C@@H]2[C@@H](C)[C@@H]3C(C)Oc4c(c(=O)[nH]c5ccccc45)[C@H]23)cc(OC)c1OC (single isomer, unassigned) | > 10 µM |  | 
17 | COc1cc([C@@H]2C[C@H]3[C@@H]2c2c(c4ccccc4[nH]c2=O)OC3(C)C)cc(OC)c1OC |  |  | Activity (Toll-like receptor 4 [6]): inactive
18 | CCC[C@]1(c2cc(OC)c(OC)c(OC)c2)O[C@H]2c3c(c4ccccc4[nH]c3=O)OC(C)(C)[C@H]2O1 |  |  | Activity (Toll-like receptor 4 [7]): inactive
19 | CCOC(=O)[C@@H]1[C@@H](c2ccc(Br)cc2)[C@H]2c3c(c4ccccc4[nH]c3=O)OC(C)(C)[C@@H]12 |  |  | Activity (Toll-like receptor 4 [8]): inactive
20 | CC[C@@H]1[C@@H](c2cc(OC)c(OC)c(OC)c2)[C@H]2c3c(c4cc(C)ccc4n(C)c3=O)OC(C)(C)[C@@H]12 | 3.1 µM | 0.3 | 
21 | COc1cc(C2[C@@H](COC(C)=O)C3[C@@H]2c2c(c4ccccc4[nH]c2=O)OC3(C)C)cc(OC)c1OC (single isomer, unassigned) | 5 µM | 0.1 | 
22 | COc1cc(C2[C@@H](COC(C)C)C3[C@@H]2c2c(c4ccccc4[nH]c2=O)OC3(C)C)cc(OC)c1OC (single isomer, unassigned) |  |  | Activity (Toll-like receptor 4 [5]): inactive
23 | COc1cc(OC)cc([C@@H]2[C@@H](C)[C@H]3[C@@H]2c2c(c4ccccc4[nH]c2=O)OC3(C)C)c1 | 3.1 µM | 0.46 | 
24 | COc1ccc([C@@H]2[C@@H](C)[C@H]3[C@@H]2c2c(c4ccccc4[nH]c2=O)OC3(C)C)c(OC)c1OC | > 10 µM |  | 
25 | COC(=O)[C@@H]1C(c2cc(OC)c(OC)c(OC)c2)[C@H]2c3c(c4ccccc4[nH]c3=O)OC(C)(C)C12 (single isomer, unassigned) |  |  | Activity (Toll-like receptor 4 [9]): inactive
26 | CCC[C@]1(c2cc(OC)cc(OC)c2)O[C@H]2c3c(c4ccccc4[nH]c3=O)OC(C)(C)[C@H]2O1 | 3.1 µM | 0.7 | 
27 | COc1ccc([C@H]2[C@H]3c4c(c5ccccc5[nH]c4=O)OC(C)(C)[C@H]3[C@@H]2C(C)C)cc1OC(C)=O | > 10 µM |  | 

The next lines start with results.

Row | EC50 (Toll-like receptor 4 [1]) | Intrinsic activity (Toll-like receptor 4 [2]) | SMILES | other results
28 | 0.63 µM | 0.82 | COc1cc([C@H]2[C@H]3c4c(c5ccccc5[nH]c4=O)OC(C)(C)[C@H]3[C@@H]2C2CC2)cc(OC)c1OC | 
29 | 0.79 µM | 1.18 | COc1cc([C@H]2[C@H]3c4c(c5ccccc5[nH]c4=O)OC(C)(C)[C@H]3[C@@H]2C(C)C)cc(OC)c1OC | 
30 | 3.1 µM | 0.29 | CC[C@@H]1[C@@H](c2ccc(OC)c(OC)c2)[C@H]2c3c(c4cc(C)ccc4n(C)c3=O)OC(C)(C)[C@@H]12 | 
31 | 1.2 µM | 1.01 | CCCC[C@@H]1[C@@H](c2ccc(OC)c(OC)c2)[C@H]2c3c(c4ccccc4[nH]c3=O)OC(C)(C)[C@@H]12 | 
32 | 0.39 µM | 0.9 | COc1ccc([C@H]2[C@H]3c4c(c5ccccc5[nH]c4=O)OC(C)(C)[C@H]3[C@@H]2C2CCCC2)cc1OC | 
33 | 3.1 µM | 0.69 | COc1ccc([C@@H]2[C@@H](C)[C@H]3[C@@H]2c2c(c4ccccc4[nH]c2=O)OC3(C)C)cc1OC | 
34 | 2 µM | 0.47 | COc1ccc([C@H]2[C@H]3c4c(c5ccccc5[nH]c4=O)OC(C)(C)[C@H]3[C@@H]2C(C)C)cc1Cl | 
35 | 2 µM | 0.61 | CC[C@@H]1[C@@H](c2ccc(OC)c(OC)c2)[C@H]2c3c(c4ccccc4n(C)c3=O)OC(C)(C)[C@@H]12 | 
36 | 0.63 µM | 0.63 | COc1cc([C@H]2[C@H]3c4c(c5ccccc5[nH]c4=O)OC(C)(C)[C@H]3[C@@H]2C2CCCC2)cc(OC)c1OC | 
37 | 3.1 µM | 0.36 | CC[C@@H]1[C@@H](c2ccc(OC)c(F)c2)[C@H]2c3c(c4ccccc4n(C)c3=O)OC(C)(C)[C@@H]12 | 
38 | 0.79 µM | 1.05 | CC[C@@H]1[C@@H](c2cc(OC)c(OC)c(OC)c2)[C@H]2c3c(c4ccccc4[nH]c3=O)OC(C)(C)[C@@H]12 | 
39 | 2 µM | 0.2 | COc1ccc([C@H]2[C@H]3c4c(c5ccccc5[nH]c4=O)OC(C)(C)[C@H]3[C@@H]2C(C)C)cc1CCl | 
40 | 0.79 µM | 0.81 | COc1cc([C@H]2[C@H]3c4c(c5ccccc5n(C)c4=O)OC(C)(C)[C@H]3[C@@H]2C2CC2)cc(OC)c1OC | 
41 | 3.1 µM | 0.31 | COc1ccc([C@H]2[C@H]3c4c(c5ccccc5n(C)c4=O)OC(C)(C)[C@H]3[C@@H]2C(C)C)cc1OC(C)=O | 
42 | 0.63 µM | 0.75 | COc1ccc([C@H]2[C@H]3c4c(c5ccccc5[nH]c4=O)OC(C)(C)[C@H]3[C@@H]2C2CC2)cc1OC | 
43 | 3.1 µM | 0.53 | COc1ccc([C@H]2[C@H]3c4c(c5ccccc5n(C)c4=O)OC(C)(C)[C@H]3[C@@H]2C(C)C)cc1Cl | 
44 | 1.2 µM | 1.01 | CC[C@@H]1[C@@H](c2ccc(OC)c(OC)c2)[C@H]2c3c(c4ccccc4[nH]c3=O)OC(C)(C)[C@@H]12 | 
45 | 2 µM | 0.69 | CCCC[C@@H]1[C@@H](c2cc(OC)c(OC)c(OC)c2)[C@H]2c3c(c4ccccc4[nH]c3=O)OC(C)(C)[C@@H]12 | 
46 | 3.1 µM | 0.44 | COc1ccc([C@@H]2[C@@H](C)[C@H]3[C@@H]2c2c(c4ccccc4[nH]c2=O)OC3(C)C)c(Cl)c1OC | 
47 | 2.5 µM | 0.69 | COc1cc([C@H]2[C@H]3c4c(c5ccccc5n(C)c4=O)OC(C)(C)[C@H]3[C@@H]2C2CCCC2)cc(OC)c1OC | 
48 | 2.5 µM | 0.64 | COc1ccc([C@@H]2[C@@H](C)[C@H]3[C@@H]2c2c(c4ccccc4n(C)c2=O)OC3(C)C)cc1OC | 
49 | 1 µM | 0.9 | COc1ccc([C@H]2[C@H]3c4c(c5ccccc5[nH]c4=O)OC(C)(C)[C@H]3[C@@H]2C(C)C)cc1OC | 
50 | 0.5 µM | 0.46 | COc1ccc([C@H]2[C@H]3c4c(c5ccccc5[nH]c4=O)OC(C)(C)[C@H]3[C@@H]2C(C)C)cc1OCCO | 
51 | 0.79 µM | 0.88 | COc1ccc([C@H]2[C@H]3c4c(c5ccccc5[nH]c4=O)OC(C)(C)[C@H]3[C@@H]2C2CC2)cc1OCCCO | 
